Source: patent publication US5798356A, “Angiostatic compounds” (Alcon Laboratories, Inc., priority 1996, dated 1998)

Experiments:
[1] = tested on: chorioallantoic membrane (CAM); assay: inhibition of angiogenesis in a chorioallantoic membrane (CAM) model; format: in vivo, chicken embryo; conditions: 10 μg in liposome/agarose bead on CAM, 2 days; percent responding embryos per nanomole relative to tetrahydrocortisol
Experimental: Representative compounds of the present invention were assayed for their efficacy in inhibiting angiogenesis in a chorioallantoic membrane (CAM) model (See, McNatt, et al., Angiostatic Activity and Metabolism of Cortisol in The Chorioallantoic Membrane (CAM) of the Chick Embryo, Journal of Steriod Biochemistry and Molecular Biology, volume 42, No. 7, pages 687-693 (1992)). Briefly, 10 μg of the test compound or reference compound (tetrahydrocortisol) were suspended in a liposome/agarose bead and placed on the CAM of a 5-6 day chicken embryo. Following 2 days of incubation, the CAMs were scored for relative angiostatic activity by comparing percent responding embryos per nanomole test compound to percent responding embryos for the reference compound.

[2] = tested on: human umbilical vein endothelial cells (HUVEC); assay: inhibition of endothelial cell proliferation (HUVEC); format: cell-based; conditions: for inhibition at 1 µM / inhibition at 5 µM / inhibition at 10 µM / inhibition at 25 µM: Homo sapiens; for inhibition at 25 µM: concentration 25 μM
Experimental: Representative compounds of the present invention were assayed for their efficacy in inhibiting endothelial cell proliferation. […] At mid-log phase the cells were detached from the plate and counted using a coulter counter. Viability tests were conducted using trypan blue. The data is expressed as percent inhibition based on the control number of endothelial cells counted.

rabbit cornea = assay: rabbit model of lipopolysaccharide (LPS) induced corneal neovascularization; format: in vivo; conditions: Elvax-40 pellet in cornea, Elvax control = 100
Experimental: Representative compounds of the present invention were assayed for their efficacy in inhibiting angiogenesis in vivo, in a rabbit model of lipopolysaccharide (LPS) induced corneal neovascularization. Briefly, the test compound and LPS (a stimulus for initiating neovascularization) are incorporated into separate Elvax-40 pellets as described in D. […] The area covered by new vessel formation in response to LPS is measured and suppression of neovascularization by test compounds is estimated at the end of the test period. The data is expressed as a relative area units in relation to the Elvax control (100).

[3] = tested on: human lung microvascular endothelial cells; assay: inhibition of 3H-thymidine uptake in DNA as a measure of DNA synthesis; format: cell-based; conditions: Endothelial cell, 18 hours exposure, then 3H-thymidine 6 hours; for inhibition at 5 µM: concentration 5.0 μM; for inhibition at 10 µM: concentration 10 μM; for inhibition at 25 µM: concentration 25 μM
Experimental: Representative compounds of the present invention were assayed for their efficacy in inhibiting ^3 H-thymidine uptake in DNA as a measure of DNA synthesis (R.I. Freshney, Culture of Animal Cells, 3rd Edition, John Wiley and Sons, N.Y., N.Y., pages 277-278 (1994)). Briefly, human lung microvascular endothelial cells in mid-log phase were exposed to either a representative compound of the present invention or the vehicle (1.0% DMSO) for 18 hours. Cells were then incubated with ^3 H-thymidine for another 6 hours. DNA synthesis was stopped by the addition of cold 5% TCA solution and the relative synthesis assessed by measuring ^3 H-thymidine incorporated into the acid-insoluble product. The data is expressed as percent inhibition of uptake based on tritium counts in the vehicle control reactions.

Row | Compound | RAF (Relative Angiostatic Factor) [1] | inhibition at 1 µM ([2]; concentration 1.0 μM) | inhibition at 5 µM ([2]; concentration 5.0 μM) | inhibition at 10 µM ([2]; concentration 10 μM) | inhibition at 25 µM [2] | Relative Area of Neovascularization (rabbit cornea; day 4) | Relative Area of Neovascularization (rabbit cornea; day 9) | Relative Area of Neovascularization (rabbit cornea; day 15) | Relative Area of Neovascularization (rabbit cornea; day 22) | further results
1 | Cc1c(C)c2c(c(C)c1OC(=O)CCC(=O)O)CCC(C)(CCCC(C)CCCC(C)CCCC(C)C)O2 (stereo not shown) [Compound G] | 1.21 | 43% | 8% | 35.1% | 65.5% | – | – | – | – | –
2 | C[C@]12CCC(=O)C=C1CC[C@@H]1[C@@H]2[C@@H](O)C[C@@]2(C)[C@H]1CC[C@]2(O)C(=O)COC(=O)CCC(=O)O [Hydrocortisone hemisuccinate, reference compound] | – | – | – | – | – | 0 relative area units | 1.5 relative area units | 0.6 relative area units | 4.9 relative area units | –
3 | C[C@]12CC[C@@H](O)C[C@H]1CC[C@@H]1[C@@H]2[C@@H](O)C[C@@]2(C)[C@H]1CC[C@]2(O)C(=O)CO [Tetrahydrocortisol, tetrahydrocortisol, reference compound] | 1.00 | – | – | – | – | – | – | – | – | –
4 | COc1ccc2cc(C(C)C(=O)OCC3(C)Cc4c(C)c(O)c(C)c(C)c4O3)ccc2c1 (stereo not shown) [Compound B] | 1.06 | 5% | 13.9% | 47.7% | 60.5% | – | – | – | – | inhibition at 5 µM [3]: 36.9%; inhibition at 10 µM [3]: 63.1%; inhibition at 25 µM [3]: 97.9%
5 | COc1ccc2cc(C(C)C(=O)NCC3(C)CCc4c(C)c(O)c(C)c(C)c4O3)ccc2c1 (stereo not shown) [C] | – | – | – | – | – | 102 relative area units | 57 relative area units | 41 relative area units | 60 relative area units | –
6 | COc1ccc2cc(C(C)C(=O)OCCC3(C)CCc4c(C)c(O)c(C)c(C)c4O3)ccc2c1 (stereo not shown) [Compound A] | 0.10 | 6.7% | 25.5% | 43.4% | 55.2% | 66 relative area units | 54 relative area units | 48 relative area units | 103 relative area units | inhibition at 5 µM [3]: 16.3%; inhibition at 10 µM [3]: 25.7%; inhibition at 15 µM ([3]; concentration 15 μM): 57.4%; inhibition at 20 µM ([3]; concentration 20 μM): 82.9%; inhibition at 25 µM [3]: 96.5%
7 | Cc1c(C)c2c(c(C)c1O)CC(C)(CCN1CCN(C(c3ccc(F)cc3)c3ccc(F)cc3)CC1)O2 (stereo not shown) [Compound E] | 1.78 | 25% | 48% | 88% | 91% | 99 relative area units | 76 relative area units | 88 relative area units | 115 relative area units | –
8 | Vitamin E [reference compound] | – | – | – | – | – | – | – | – | – | % Inhibition of Endothelial Cell Proliferation ([2]; concentration 1.0 μM): 0%; % Inhibition of Endothelial Cell Proliferation ([2]; concentration 5.0 μM): 0%; % Inhibition of Endothelial Cell Proliferation ([2]; concentration 10 μM): 1%
9 | Cc1c(C)c2c(c(C)c1O)CCC(C)(CCO)O2 (stereo not shown) [F] | – | – | – | – | – | 92 relative area units | 85 relative area units | 30 relative area units | 39 relative area units | –
